Assay results: patent US10226482B2, “Copolymer and method for treatment of bacterial infection” (RECCE LIMITED, priority 2014, dated 2019)
Read-outs that look alike come from different tables or passages of the source.

How the values were obtained:
MRSA (S. aureus USA300) = assay: Example 9: curative treatment by tail injection of infected mice; assay type: in vivo, BALB/c mice; details: 1 to 7 scale (1 alert and healthy); tail injection 24 hours after infection; Example 1 132 mg/Kg, Comparative Example 1 167 mg/Kg, Oxacillin 500 mg/Kg
Method: All experiments were prior-audited, and then supervised to comply with international standards to ensure humane treatment of the animals. All experiments were performed in independent laboratories. In particular, all experiments in Examples 6, 7 and 8 were done in USA within pre-designed protocols specifically to research sepsis and bacteremia; protocols were “blinded” of the identity of test-solutions, to both the supervisor and assistants. All infections were in 100 μL, designed to result in approximately 10^7 cfu/mL infection of mouse-blood; mice were type BALB/c—ten per group in each experiment. Mice were assessed by either sacrifice followed by cfu/g count of bacteria within organ(s), or within a 1 to 7 scale of Health Score, including (1; alert and healthy) to (5; sick and very ruffled coat; euthanized) to (7; deceased). The protocols are tabulated, and follow.
Four groups of each 10 mice were infected with S. aureus superbug (S. aureus USA300), and 24 hours afterwards each group treated curatively with respectively: The copolymer of Example 1 (Ex 1) MW 500 at 132 mg/Kg of mouse; copolymer MW 2500 Comparative Example 1 (CE 1) at 167 mg/Kg of mouse; positive control Oxacillin, 500 mg/Kg and negative control saline. FIG. 5 is a chart showing the number of mice culled due to morbidity or mortality.

P. aeruginosa = assay type: cell-based; details: with broth
Method: Three test organisms—E. coli, S. aureus and P. aeruginosa—were respectively inoculated to achieve an approximate concentration 10^6 cfu/mL in the test solutions; the test solutions each comprised 19 g sterile distilled water, 1 mL trypticase soy broth and copolymer (Example 1; 383 mg; 5.4% w/w on acrolein added) or Comparative Example 1; 303 mg; 6.7% w/w solution on acrolein added). The inoculated test solutions, pH 6.5 to 7.0 were then incubated at 37° C. for sufficient time-periods such that approximately 10^2-10^3 cfu/mL (or 99-99.9% of organisms) killed was achieved.
(§1) A 1 mL aliquot was removed from each respective solution and mixed for one minute with a 1 mL aliquot of Trypticase Soy Broth, then 8 mL of sterile water was added and mixed. Aliquots (1 mL) were then removed from each solution and lawn-inoculated by flooding onto Horse Blood Agar plates for 24-48 hours incubation at 37° C. Visual counts of bacterial growth on the plates were performed.
(§2) Successive generations of E. coli, S. aureus or P. aeruginosa respectively were cultivated via their selection through repeated exposure to a copolymer or Amoxicillin; Organisms surviving treatment were harvested for another cycle of treatment—this process being repeated up to 25 times.

E. coli = assay type: cell-based
Method: (§3) […] The inoculated test solutions, pH 6.5 to 7.0 were then incubated at 37° C. for sufficient time-periods such that approximately 10^2-10^3 cfu/mL (or 99-99.9% of organisms) killed was achieved.
as §1, §2

S. aureus = assay type: cell-based
Method: as §3, §1, §2

[1] = 0.35% w/w solution of Amoxicillin

Row | SMILES | Health Score of surviving mice (MRSA (S. aureus USA300)) | Number of generations of microbes to resistance (P. aeruginosa) | generation after which bacterial resistance resulted (E. coli; [1]) | Number of generations of microbes to resistance (E. coli; with broth) | Number of generations of microbes to resistance (E. coli; without broth) | generation after which bacterial resistance resulted (S. aureus; [1]) | Number of generations of microbes to resistance (S. aureus; with broth) | Number of generations of microbes to resistance (S. aureus; without broth)
1 | Cc1onc(-c2ccccc2)c1C(=O)N[C@@H]1C(=O)N2[C@@H]1SC(C)(C)[C@@H]2C(=O)O [Oxacillin] | 2.5 |  |  |  |  |  |  | 
2 | CC1(C)S[C@@H]2[C@H](NC(=O)[C@H](N)c3ccc(O)cc3)C(=O)N2[C@H]1C(=O)O [Amoxicillin] |  | 6 | second | 8 | 2 | eighth | 10 | 8
